“Also recorded” adds a separate entry of the source.
Assays:
[1] = system: CD1a-transgenic mice; assay: DNFB hapten sensitization and challenge in CD1a-transgenic mice; assay type: in vivo
Source text: Finally, we wanted to examine whether CD1a-transgenic mice are generally prone to increased inflammatory responses. To this end, we treated mice with the well-established hapten DNFB (dinitrofluorobenzene). FIG. 7A depicts the skin sensitization and challenge schedule used for DNFB and urushiol application. […] It is well known that haptens like DNFB induce a prominent IFN-γ response, as we observed in WT mice (FIG. 7D). […] By contrast, the classical delayed type hypersensitivity (DTH) response to DNFB was rather decreased in the presence of CD1a. This underlines the specific nature of CD1a function in urushiol-induced contact dermatitis and psoriasis.

[2] = target: T1, CD1a (Homo sapiens, UniProt P06126); assay: MC903-induced atopic dermatitis model in CD1a-transgenic mice; assay type: in vivo; design: expressed in transfected cells; host or cells: CD1a-transgenic mice (compared with wild-type B6 mice); settings: MC903 daily on ears, CD1a-transgenic mice compared to WT B6 controls
Source text: Atopic dermatitis is an inflammatory skin disease characterized by itchy and relapsing eczematous skin lesions. It affects approximately 30% of children and 10% of adults, costing up to $3.8 billion annually in the United States. The cause of atopic dermatitis remains unclear, and there is no cure available. Recently, it has been reported that IL-22-producing CD4 T cells are associated with initiation and progression of atopic dermatitis. Therefore, it is worthwhile to test whether anti-CD1a therapy can be extended to atopic dermatitis. For this purpose, we set up a mouse model of atopic dermatitis applying MC903 (calcipotriol, Vitamin D analogue) daily on the ears of experimental mice, which triggers atopic dermatitis-like skin inflammation characterized by red, scaly, and eczematous lesions. […] Furthermore, anti-CD1a Ab injection suppressed ear swelling and granulocyte infiltration in CD1a-transgenic mice.
The inventors tested the contribution of CD1a presence in MC903-induced atopic dermatitis. The vitamin D3 analogue MC903 was used to induce AD-like symptoms in wild-type (WT-B6) mice, CD1a transgenic mice, and CD1a transgenic mice that were treated with an anti-CD1a Ab. For CD1a blocking, 200 μg of anti-CD1a Ab was intraperitoneally injected into CD1a-transgenic mice every other day (−1, +1, +3, +5, and +7 days before and after MC903 treatment).
Target sequence in this assay (P06126 17-327): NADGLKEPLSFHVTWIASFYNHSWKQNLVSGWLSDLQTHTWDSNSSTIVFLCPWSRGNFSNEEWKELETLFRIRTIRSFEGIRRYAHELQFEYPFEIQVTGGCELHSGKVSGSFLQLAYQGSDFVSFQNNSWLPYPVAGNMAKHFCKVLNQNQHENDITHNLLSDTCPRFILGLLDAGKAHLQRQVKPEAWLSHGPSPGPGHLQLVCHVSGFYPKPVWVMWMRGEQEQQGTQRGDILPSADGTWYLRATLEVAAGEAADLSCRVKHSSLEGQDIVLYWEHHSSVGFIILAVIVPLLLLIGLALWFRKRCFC
Target sequence in this assay (P01887 21-119 partner): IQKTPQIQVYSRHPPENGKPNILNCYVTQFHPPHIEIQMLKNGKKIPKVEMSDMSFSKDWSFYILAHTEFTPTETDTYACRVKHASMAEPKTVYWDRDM

[3] = target: T1, CD1a; assay: OCTET Bio-Layer Interferometry CD1a-lipid ligand binding assay; settings: recombinant CD1a coupled to a biosensor, incubated with lipid ligand
Source text: In order to develop a small molecule inhibitor against CD1a, a CD1a binding assay as a platform can be used to test potential inhibitors from a chemical compound library. For this purpose, we have already established a read-out using the OCTET machine (from FORTEBIO) to measure the molecular interaction between CD1a and lipid ligands with high sensitivity. […] However, the great advantage of the OCTET is its straightforward assay set-up, and that it is amenable to high throughput screening using a 384-well plate format. Accordingly, we use recombinant CD1a molecules coupled to a biosensor, prior to incubation with the known lipid ligand sulfatide. […] In a next step, use pools of small organic molecules derived from a chemical compound library are tested by adding them to the CD1a-sulfatide binding assay. Subsequently, one can measure whether a small molecule candidate is able to inhibit the interaction between CD1a and its ligand.
Target sequence in this assay (P06126 17-300 limits assumed): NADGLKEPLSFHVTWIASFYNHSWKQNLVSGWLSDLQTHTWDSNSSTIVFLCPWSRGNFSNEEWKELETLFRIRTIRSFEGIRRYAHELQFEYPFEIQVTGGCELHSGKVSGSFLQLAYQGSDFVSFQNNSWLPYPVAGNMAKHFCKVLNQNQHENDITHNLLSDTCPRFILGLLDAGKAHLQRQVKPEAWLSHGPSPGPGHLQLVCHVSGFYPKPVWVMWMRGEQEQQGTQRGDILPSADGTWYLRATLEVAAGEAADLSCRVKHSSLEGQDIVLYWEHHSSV
Target sequence in this assay (P61769 21-119 partner): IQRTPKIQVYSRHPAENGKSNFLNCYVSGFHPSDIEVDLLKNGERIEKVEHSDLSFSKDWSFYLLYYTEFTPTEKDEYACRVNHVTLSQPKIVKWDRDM

[4] = target: T1, CD1a; assay: plate-bound binding assay, purified urushiol and recombinant CD1a; settings: plate coated with lipid, biotinylated CD1a, streptavidin-peroxidase; compared to positive control sulfatide
Source text: Central to our invention is the discovery that CD1a expressed on Langerhans cells is able to mediate skin inflammation through the induction of CD1a-restricted T cells. Accordingly, T cells stimulated by CD1a produce inflammatory cytokines such as interferon (IFN) gamma and IL-17 that facilitate the development of inflammatory skin disease (FIG. 1A). The CD1a-mediated mechanism holds true for diverse skin diseases, including poison ivy contact dermatitis as well as psoriasis. […] For this purpose, we performed a plate-bound binding assay, using purified urushiol and recombinant CD1a. After coating the microtiter plates with urushiol or the known CD1a ligand sulfatide as positive control, plates were washed and subsequently incubated with biotinylated CD1a. Following incubation with streptavidin-peroxidase and the respective chromogenic enzyme substrate, optical density was measured indicating binding efficiency. […] Thus, urushiol from poison ivy is a ligand for CD1a.
Target sequence in this assay (P06126 17-300 limits assumed): as the sequence (P06126 17-300 limits assumed) above
Target sequence in this assay (P61769 21-119 partner): as the sequence (P61769 21-119 partner) above

[5] = target: T1, CD1a; assay: urushiol-induced contact dermatitis (poison ivy) in CD1a-transgenic mice; assay type: in vivo, mouse; design: expressed in transfected cells; host or cells: CD1a-transgenic mice (compared with wild-type B6 mice)
Source text: Next, we wanted to explore the function of CD1a in the in vivo response to urushiol. However, CD1a is mainly expressed in humans, and absent in experimental mice. Therefore, in vivo studies investigating CD1a function were not possible in the past. Therefore, we used mice transgenic for human CD1a to overcome that obstacle. FIG. 2A depicts the experimental set-up to investigate the skin immune response to poison ivy. Accordingly, CD1a-transgenic mice compared to wild-type (WT) mice were sensitized with urushiol on the abdomen following the epicutaneous route. Five days later, mice were challenged on the ear skin, prior to harvesting of inflamed ears and draining lymph nodes 48 h after challenge. […] Subsequently, we isolated the inflammatory cells from the ears, using in vitro enzyme digestion of ear tissues, prior to staining for neutrophils and T lymphocyte subsets.
In parallel, we also determined the cytokine profile of the T cells infiltrating the inflamed skin. Accordingly, we performed intracellular cytokine staining for IFN-γ, IL-17, and IL-22, prior to analysis by flow cytometry. […] IL-17 is known to mediate the recruitment of neutrophils, and IL-22 acts on epithelial cells to trigger their hyperproliferation, both cardinal features of skin inflammation.
Based on our findings that CD1a promotes skin inflammation, we next aimed at developing a therapeutic strategy to target CD1a in order to abrogate skin disease. To this end, we used an experimental blocking antibody to CD1a for intraperitoneal injection of mice. The treatment schedule included five injections of 100 μg anti-CD1a starting one day prior to sensitization with urushiol and followed by injections every other day until challenge and tissue harvest. […] To control for the efficiency of antibody treatment, we stained ear cells for CD1a, the crucial surface marker of Langerhans cells. […] Moreover, we investigated the impact of anti-CD1a treatment on the abundance of IL-17-producing CD4 T cells (also called Th17 cells). […] Taken together, we provide the proof of principle that anti-CD1a therapy abrogates skin inflammation.
Target sequence in this assay (P06126 17-327): as the sequence (P06126 17-327) above
Target sequence in this assay (P01887 21-119 partner): as the sequence (P01887 21-119 partner) above

[6] = target: T1, CD1a; assay: imiquimod (IMQ) psoriasis model in CD1a-transgenic mice; assay type: in vivo, mouse; design: expressed in transfected cells; host or cells: CD1a-transgenic mice (compared with wild-type B6 mice)
Source text: Therefore, we subsequently investigated whether CD1a also plays an important role in psoriasis. For this purpose, we used a well-established model applying the small molecule imiquimod (IMQ) to the skin of mice, which induces psoriasis-like pathology after 3-6 days of daily administration. Strikingly, CD1a-transgenic mice responded with extensive ear swelling when compared to WT controls (FIG. 5A).
In order to test whether anti-CD1a therapy is able to abrogate skin inflammation in psoriasis, we performed IMQ treatment of mice and administered anti-CD1a antibody in parallel as described above. […] Of note, anti-CD1a therapy blocked the infiltration of IL-17 producing CD4 T cells.
Target sequence in this assay (P06126 17-327): as the sequence (P06126 17-327) above
Target sequence in this assay (P01887 21-119 partner): as the sequence (P01887 21-119 partner) above

[7] = intracellular cytokine staining, flow cytometry

O=[N+]([O-])c1ccc(F)c([N+](=O)[O-])c1 [DNFB, 2,4,-dinitro-1-fluorobenzene]
T cell-derived IFN-γ ([1]; CD1a-transgenic animals, response biased towards IL-17): significantly reduced
abundance of inflammatory granulocytes, flow cytometry ([1]; CD1a-transgenic mice): strikingly reduced
ear swelling (inflammation) ([1]; CD1a-transgenic mice, in contrast to poison ivy challenge): reduction
IFN-γ response ([1]; WT mice): prominent

C=C1/C(=C\C=C2/CCC[C@]3(C)[C@@H]([C@H](C)/C=C/[C@@H](O)C4CC4)CC[C@@H]23)C[C@@H](O)C[C@@H]1O [MC903, calcipotriol]
Gr1+CD11b+ granulocyte infiltration [2]: significantly amplified
ear swelling [2]: significantly amplified

sulfatide
binding curves, molecular interaction with CD1a [3]: sensitive and specific binding curves

urushiol
binding to CD1a (optical density) [4]: specific binding; also recorded: interacts as a ligand
ear swelling (ear thickness) ([5]; 2 days after urushiol challenge, CD1a-transgenic mice compared to WT controls): drastically increased
CD4+αβ T cells in urushiol-challenged skin ([5]; CD1a-dependent fashion): expanded
frequency of Th17 cells ([5]; CD1a-transgenic mice challenged with urushiol): drastically increased
IFN-γ response of T cells infiltrating the inflamed skin [5, 7]: failed to induce
cytokine profile of T cells responding to challenge [5, 7]: mainly produced the cytokines IL-17 and IL-22
neutrophil infiltration (Gr-1, CD11b), flow cytometry ([5]; urushiol-challenged ears, CD1a-transgenic mice vs WT): striking increase

CC(C)Cn1cnc2c(N)nc3ccccc3c21 [imiquimod]
ear swelling ([6]; IMQ on skin, CD1a-transgenic mice compared to WT controls): extensive
Gr-1+CD11b+ neutrophils and αβ T cells in the skin, flow cytometry ([6]; IMQ, CD1a-transgenic mice): dramatic increase
cytokine profile of inflammatory T cells ([6]; IMQ, CD1a-transgenic mice): mainly consisted of CD4 T cells producing IL-17 and IL-22

Reference: US10844118B2, “Treatment of inflammatory skin disease” (CHILDREN'S MEDICAL CENTER CORPORATION, priority 2013, dated 2020)
